According to ChEMBL document CHEMBL1201862, “PubChem BioAssay data set” (2004):
Several values for one entry are separate records, joined by “and”; a condition that tells them apart may be missing. Identical values can stand only once.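 Five compound concentrations were applied to cells in 96-well plates for 48 hours; endpoints were derived by simple linear interpolation of the resulting dose-response curve. The concentration for 50% growth inhibition is given as GI50.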 Activity calls are given as the source filed them. Cut-off read from the data, not from the text of the source: active = GI50 up to about 1.1 µM and inactive = higher.

Columns and labels:
Test in all cases: NCI tumour cell line growth inhibition, 48 h
SF-268 = system: SF-268
OVCAR-8 = system: OVCAR-8
COLO 205 = system: COLO 205
U-251 = system: U-251
HOP-62 = system: HOP-62
MDA-MB-435 = system: MDA-MB-435
Malme-3M = system: Malme-3M
T47D = system: T47D
RXF 393 = system: RXF 393
UACC-62 = system: UACC-62
SK-MEL-2 = system: SK-MEL-2
SF-539 = system: SF-539
IGROV-1 = system: IGROV-1
SK-OV-3 = system: SK-OV-3
HCC 2998 = system: HCC 2998
NCI-H23 = system: NCI-H23
SK-MEL-5 = system: SK-MEL-5
NCI-H460 = system: NCI-H460
786-0 = system: 786-0
RPMI-8226 = system: RPMI-8226
EKVX = system: EKVX
MDA-MB-231 = system: MDA-MB-231
NCI-H522 = system: NCI-H522
HT-29 = system: HT-29
ACHN = system: ACHN
Hs-578T = system: Hs-578T
HL-60 = system: HL-60
MCF7 = system: MCF7
DU-145 = system: DU-145
MOLT-4 = system: MOLT-4
CCRF-CEM = system: CCRF-CEM
PC-3 = system: PC-3
OVCAR-3 = system: OVCAR-3
NCI/ADR-RES = system: NCI/ADR-RES
LOX IMVI = system: LOX IMVI
A498 = system: A498
K562 = system: K562
HCT-15 = system: HCT-15
SN12C = system: SN12C
OVCAR-4 = system: OVCAR-4
SW-620 = system: SW-620
UO-31 = system: UO-31
A549 = system: A549
KM12 = system: KM12
M14 = system: M14
SK-MEL-28 = system: SK-MEL-28
SR = system: SR
UACC-257 = system: UACC-257
SNB-75 = system: SNB-75
TK-10 = system: TK-10
HCT-116 = system: HCT-116
CAKI-1 = system: CAKI-1
NCI-H226 = system: NCI-H226
SF-295 = system: SF-295
SNB-19 = system: SNB-19
BT-549 = system: BT-549
HOP-92 = system: HOP-92
OVCAR-5 = system: OVCAR-5

NCCN1CC2CCC(CC2)C1
GI50 (SF-268): > 10 µM (inactive)
GI50 (OVCAR-8): > 10 µM (inactive)
GI50 (COLO 205): > 10 µM (inactive)
GI50 (U-251): > 10 µM (inactive)
GI50 (HOP-62): > 10 µM (inactive)
GI50 (MDA-MB-435): > 10 µM (inactive)
GI50 (Malme-3M): > 10 µM (inactive)
GI50 (T47D): > 10 µM (inactive)
GI50 (RXF 393): > 10 µM (inactive)
GI50 (UACC-62): > 10 µM (inactive)
GI50 (SK-MEL-2): > 10 µM (inactive)
GI50 (SF-539): > 10 µM (inactive)
GI50 (IGROV-1): > 10 µM (inactive)
GI50 (SK-OV-3): > 10 µM (inactive)
GI50 (HCC 2998): > 10 µM (inactive)
GI50 (NCI-H23): > 10 µM (inactive)
GI50 (SK-MEL-5): > 10 µM (inactive)
GI50 (NCI-H460): > 10 µM (inactive)
GI50 (786-0): > 10 µM (inactive)
GI50 (RPMI-8226): > 10 µM (inactive)
GI50 (EKVX): > 10 µM (inactive)
GI50 (MDA-MB-231): > 10 µM (inactive)
GI50 (NCI-H522): > 10 µM (inactive)
GI50 (HT-29): > 10 µM (inactive)
GI50 (ACHN): > 10 µM (inactive)
GI50 (Hs-578T): > 10 µM (inactive)
GI50 (HL-60): > 10 µM (inactive)
GI50 (MCF7): > 10 µM (inactive)
GI50 (DU-145): > 10 µM (inactive)
GI50 (MOLT-4): > 10 µM (inactive)
GI50 (CCRF-CEM): > 10 µM (inactive)
GI50 (PC-3): > 10 µM (inactive)
GI50 (OVCAR-3): > 10 µM (inactive)
GI50 (NCI/ADR-RES): > 10 µM (inactive)
GI50 (LOX IMVI): > 10 µM (inactive)
GI50 (A498): > 10 µM (inactive)
GI50 (K562): > 10 µM (inactive)
GI50 (HCT-15): > 10 µM
GI50 (SN12C): > 10 µM (inactive)
GI50 (OVCAR-4): > 10 µM (inactive)
GI50 (SW-620): > 10 µM (inactive)
GI50 (UO-31): > 10 µM (inactive)
GI50 (A549): > 10 µM (inactive)
GI50 (KM12): > 10 µM (inactive)
GI50 (M14): > 10 µM (inactive)
GI50 (SK-MEL-28): > 10 µM (inactive)
GI50 (SR): > 10 µM (inactive)
GI50 (UACC-257): > 10 µM (inactive)
GI50 (SNB-75): > 10 µM (inactive)
GI50 (TK-10): > 10 µM (inactive)
GI50 (HCT-116): > 10 µM (inactive)
GI50 (CAKI-1): > 10 µM (inactive)
GI50 (NCI-H226): > 10 µM (inactive)
GI50 (SF-295): > 10 µM (inactive)
GI50 (SNB-19): > 10 µM (inactive)

S=C1NN=C2C(=C3CCCC4C5CCCCC5N2C34)N1 (stereo not drawn)
GI50 (SF-268): > 100 µM (inactive)
GI50 (OVCAR-8): > 100 µM (inactive)
GI50 (COLO 205): 33 µM (inactive)
GI50 (HOP-62): > 100 µM (inactive)
GI50 (Malme-3M): > 100 µM (inactive)
GI50 (BT-549): > 100 µM (inactive)
GI50 (T47D): 24.8 µM (inactive)
GI50 (IGROV-1): > 100 µM (inactive)
GI50 (SK-OV-3): > 100 µM (inactive)
GI50 (NCI-H23): > 100 µM (inactive)
GI50 (SK-MEL-5): 82.6 µM (inactive)
GI50 (RPMI-8226): 28.4 µM (inactive)
GI50 (NCI-H522): 62.2 µM (inactive)
GI50 (ACHN): > 100 µM (inactive)
GI50 (Hs-578T): > 100 µM (inactive)
GI50 (HL-60): > 100 µM (inactive)
GI50 (MCF7): 44.5 µM (inactive)
GI50 (DU-145): > 100 µM (inactive)
GI50 (MOLT-4): 38 µM (inactive)
GI50 (HOP-92): > 100 µM (inactive)
GI50 (CCRF-CEM): 37.2 µM (inactive)
GI50 (OVCAR-3): > 100 µM (inactive)
GI50 (NCI/ADR-RES): > 100 µM (inactive)
GI50 (LOX IMVI): 56.4 µM (inactive)
GI50 (K562): 38 µM (inactive)
GI50 (HCT-15): > 100 µM
GI50 (OVCAR-4): > 100 µM (inactive)
GI50 (SW-620): > 100 µM (inactive)
GI50 (UO-31): > 100 µM (inactive)
GI50 (A549): > 100 µM (inactive)
GI50 (KM12): > 100 µM (inactive)
GI50 (M14): > 100 µM (inactive)
GI50 (SK-MEL-28): > 100 µM (inactive)
GI50 (SR): 83.4 µM (inactive)
GI50 (UACC-257): > 100 µM (inactive)
GI50 (TK-10): > 100 µM (inactive)
GI50 (OVCAR-5): > 100 µM (inactive)
GI50 (CAKI-1): > 100 µM (inactive)
GI50 (NCI-H226): 0.678 µM (active)
GI50 (SF-295): > 100 µM (inactive)
GI50 (SNB-19): > 100 µM (inactive)

CC(=O)OCC1OC(n2c(S)c(C#N)c(-c3ccccc3)c(C#N)c2=O)C(OC(C)=O)C(OC(C)=O)C1OC(C)=O (stereo not drawn)
GI50 (SF-268): 21.8 µM (inactive) and 33 µM (inactive)
GI50 (U-251): 23.8 µM (inactive) and 35.2 µM (inactive)
GI50 (HOP-62): 21.7 µM (inactive) and 21.9 µM (inactive)
GI50 (RXF 393): 19.5 µM (inactive) and 18.5 µM (inactive)
GI50 (IGROV-1): 53 µM (inactive)
GI50 (NCI-H460): 50.2 µM (inactive) and > 88.7 µM (inactive)
GI50 (786-0): 30 µM (inactive) and 33.9 µM (inactive)
GI50 (ACHN): 54.1 µM (inactive) and 78.5 µM (inactive)
GI50 (Hs-578T): 38.8 µM (inactive)
GI50 (DU-145): 58.3 µM (inactive)
GI50 (HOP-92): 31.3 µM (inactive) and 16.6 µM (inactive)
GI50 (NCI/ADR-RES): > 100 µM (inactive)
GI50 (K562): > 100 µM (inactive)
GI50 (HCT-15): > 100 µM
GI50 (A549): > 100 µM (inactive)
GI50 (SNB-75): 26.2 µM (inactive) and 20.1 µM (inactive)
GI50 (CAKI-1): 50.8 µM (inactive) and 61.9 µM (inactive)
GI50 (NCI-H226): > 87.7 µM (inactive)
GI50 (SNB-19): 32.2 µM (inactive)

COc1cc2c(cc1C)NC(=O)/C2=C\c1cccnc1
GI50 (SF-268): 19.4 µM (inactive)
GI50 (OVCAR-8): 15.5 µM (inactive)
GI50 (COLO 205): 16.5 µM (inactive)
GI50 (U-251): 12.9 µM (inactive)
GI50 (HOP-62): 22.4 µM (inactive)
GI50 (MDA-MB-435): 13.7 µM (inactive)
GI50 (Malme-3M): 15 µM (inactive)
GI50 (BT-549): 21.9 µM (inactive)
GI50 (T47D): 3.91 µM (inactive)
GI50 (RXF 393): 17.4 µM (inactive)
GI50 (SK-MEL-2): 18.7 µM (inactive)
GI50 (SF-539): 20.4 µM (inactive)
GI50 (SK-OV-3): 16.3 µM (inactive)
GI50 (HCC 2998): 10 µM (inactive)
GI50 (NCI-H23): 10.8 µM (inactive)
GI50 (SK-MEL-5): 15.1 µM (inactive)
GI50 (NCI-H460): 22.6 µM (inactive)
GI50 (786-0): 25 µM (inactive)
GI50 (RPMI-8226): 26.9 µM (inactive)
GI50 (EKVX): 19.8 µM (inactive)
GI50 (NCI-H522): 20.4 µM (inactive)
GI50 (HT-29): 15.5 µM (inactive)
GI50 (ACHN): 26.9 µM (inactive)
GI50 (Hs-578T): 24.7 µM (inactive)
GI50 (HL-60): 5 µM (inactive)
GI50 (MCF7): 11.7 µM (inactive)
GI50 (DU-145): 17.1 µM (inactive)
GI50 (MOLT-4): 7.98 µM (inactive)
GI50 (HOP-92): 25.1 µM (inactive)
GI50 (CCRF-CEM): 20.8 µM (inactive)
GI50 (PC-3): 30.1 µM (inactive)
GI50 (OVCAR-3): 13.7 µM (inactive)
GI50 (NCI/ADR-RES): 14.1 µM (inactive)
GI50 (LOX IMVI): 18.7 µM (inactive)
GI50 (A498): 10.3 µM (inactive)
GI50 (K562): 9.4 µM (inactive)
GI50 (HCT-15): 16.4 µM
GI50 (SN12C): 15.7 µM (inactive)
GI50 (OVCAR-4): 18.7 µM (inactive)
GI50 (SW-620): 26.8 µM (inactive)
GI50 (UO-31): 15.6 µM (inactive)
GI50 (A549): 21.3 µM (inactive)
GI50 (KM12): 13.6 µM (inactive)
GI50 (M14): 12.9 µM (inactive)
GI50 (SK-MEL-28): 50.4 µM (inactive)
GI50 (UACC-257): 13.1 µM (inactive)
GI50 (SNB-75): 17.9 µM (inactive)
GI50 (TK-10): 14.9 µM (inactive)
GI50 (OVCAR-5): 17.6 µM (inactive)
GI50 (HCT-116): 15.1 µM (inactive)
GI50 (CAKI-1): 15.4 µM (inactive)
GI50 (SF-295): 14.7 µM (inactive)
GI50 (SNB-19): 12.6 µM (inactive)
